Source: the NIST ThermoML archive (doi:10.1021/acs.jced.5b00919)
± gives the expanded uncertainty stated by the source.

Assay: activity coefficient (dimensionless); of the first substance listed, at infinite dilution; xn = mol fraction of the nth substance listed
Conditions: 101 kPa, Liquid, Chromatography, x1 = 0

activity coefficient (338.15 K) | activity coefficient (348.15 K) | activity coefficient (358.15 K) | activity coefficient (368.15 K) | SMILES
0.38 ± 0.03 | 0.29 ± 0.03 | 0.24 ± 0.03 | 0.2 ± 0.03 | CCC(C)O (centres undefined) [butan-2-ol] + CCCC[N+](C)(CCCC)CCCC.COS(=O)(=O)[O-]
0.29 ± 0.03 | 0.24 ± 0.03 | 0.21 ± 0.03 | 0.18 ± 0.03 | CCCO [propan-1-ol] + CCCC[N+](C)(CCCC)CCCC.COS(=O)(=O)[O-]
0.4 ± 0.03 | 0.31 ± 0.03 | 0.25 ± 0.03 | 0.22 ± 0.03 | CCCCO [butan-1-ol] + CCCC[N+](C)(CCCC)CCCC.COS(=O)(=O)[O-]
0.24 ± 0.03 | 0.2 ± 0.03 | 0.19 ± 0.03 | 0.17 ± 0.03 | CCO [ethanol] + CCCC[N+](C)(CCCC)CCCC.COS(=O)(=O)[O-]
0.16 ± 0.03 | 0.15 ± 0.03 | 0.14 ± 0.03 | 0.13 ± 0.03 | CO [methanol] + CCCC[N+](C)(CCCC)CCCC.COS(=O)(=O)[O-]
0.32 ± 0.03 | 0.28 ± 0.03 | 0.25 ± 0.03 | 0.23 ± 0.03 | CC(C)(C)O [2-methylpropan-2-ol] + CCCC[N+](C)(CCCC)CCCC.COS(=O)(=O)[O-]
